Laboratory results published in patent publication US20230056205A1, “SUBSTITUTED 4,6-DIHYDROSPIRO[[1,2,3]TRIAZOLO[4,5-B]PYRIDINE-7,3'-INDOLINE]-2',5(3H)-DIONE ANALOGUES” (The Board of Regents of The University of Texas System, priority 2019, published 2023).
pEC50: −log10 of the molar value. Where two headings read alike, the source gives them in different places.

Columns and labels:
[1] = tested on: DENV-3 replicon; test: Luciferase reporter replicon-based screening, DENV-3; assay type: cell-based, DENV-3 (strain D3MY05-34640)
Description: (§1) Luciferase Reporter Replicon-Based Screening. Huh7 cells containing a luciferase reporter replicon of DENV-1 (strain WestPac), DENV-2 (New Guinea C strain, NGC), DENV-3 (strain D3MY05-34640) and DENV-4 (strain D4MY01-22713) were used in this study. The replicon cells containing the Renilla luciferase and neomycin-resistance genes were generated using a similar strategy as described previously.^55 Briefly, Huh7 DENV-1 to -4 replicon cells were seeded at a density of 10k per well in a 96-well microplate. After incubation at 37° C. with 5% CO2 overnight, the cells were treated with 2-fold serial dilutions of compounds. Experiments were performed in duplicates. After 48 h of incubation, luciferase activities were measured using the EnduRen live-cell substrate (Promega) by following the manufacturer’s instructions. The dose-dependent curve was plotted and EC50 values were calculated using four parameter logistic regression in GraphPad software Prism 8.0.

[2] = tested on: DENV-1 replicon; test: Luciferase reporter replicon-based screening, DENV-1; assay type: cell-based, DENV-1 (strain WestPac); settings: Dengue virus, DENV1, Huh-7, 48 h, read-out: EC50 DENV-1
Description: as §1

[3] = Cytotoxicity assay (CellTiter-Glo); assay type: cell-based; settings: human, Huh7 cells stably expressing DENV-2 replicon
Description: Cytotoxicity Assay. Huh7 cells or Huh7 replicon cells were seeded in a 96-well plate. After incubation at 37° C. with 5% CO2 overnight, the cells were treated with 2-fold serial dilutions of compounds. Experiments were performed in duplicates. After 48 h of incubation, cell viability was measured by adding the CellTiter-Glo reagent (Promega) to each well. The cell viability in 0.45% DMSO-treatment groups was treated at 100%. The cell viability in compound-treated wells was normalized to that of DMSO-treated wells. CC50 values were calculated using four parameter logistic regression in GraphPad software Prism 8.0.

[4] = tested on: DENV-2 replicon; test: Luciferase reporter replicon-based screening, DENV-2; assay type: cell-based, DENV-2 (New Guinea C strain, NGC)
Description: as §1

[5] = tested on: DENV-4 replicon; test: Luciferase reporter replicon-based screening, DENV-4; assay type: cell-based, DENV-4 (strain D4MY01-22713); settings: Dengue virus, DENV4, Huh-7, 48 h, read-out: EC50 DENV-4
Description: as §1

[6] = Dengue virus, DENV3, Huh-7, 48 h, read-out: EC50 DENV-3, Huh7 cells stably expressing DENV-3 replicon, 48 h
[7] = Dengue virus, DENV2, Huh-7, 48 h, read-out: EC50 DENV-2, Huh7 cells stably expressing DENV-2 replicon, 48 h
[8] = read-out: EC50 DENV-3, Huh7 cells stably expressing DENV-3 replicon, 48 h
[9] = read-out: EC50 DENV-2, Huh7 cells stably expressing DENV-2 replicon, 48 h

SMILES	pEC50 [1, 6]	pEC50 [2]	CC50 at 48 h [3] [nM]	pEC50 [4, 7]	pEC50 [5]	pEC50 [1, 8]	pEC50 [4, 9]
C[C@@H](c1ccc(Cl)cc1)n1nnc2c1NC(=O)C[C@]21C(=O)N(Cc2ccncc2)c2ccc(Cl)cc21 [Compound 35, (R)-5'-Chloro-3-((S)-1-(4-chlorophenyl)ethyl)-1'-(pyridin-4-ylmethyl)-4,6-dihydrospiro[[1,2,3]triazolo[4,5-b]pyridine-7,3'-indoline]-2',5(3H)-dione]	7.60	< 5.30	> 10000	7.14	< 5.30	–	–
C[C@@H](c1ccc(Cl)cc1)n1nnc2c1NC(=O)C[C@]21C(=O)N(Cc2ccc(Cl)nc2)c2ccc(Cl)cc21 [Compound 36, (R)-5'-Chloro-3-((S)-1-(4-chlorophenyl)ethyl)-1'-((6-chloropyridin-3-yl)methyl)-4,6-dihydrospiro[[1,2,3]triazolo[4,5-b]pyridine-7,3ʹ-indoline]-2',5(3H)-dione]	8.22	< 5.30	> 10000	7.11	< 5.30	–	–
Cc1ccc(CN2C(=O)[C@]3(CC(=O)Nc4c3nnn4[C@@H](C)c3ccc(Cl)cc3)c3cc(Cl)ccc32)cn1 [Compound 37, (R)-5'-Chloro-3-((S)-1-(4-chlorophenyl)ethyl)-1'-((6-methylpyridin-3-yl)methyl)-4,6-dihydrospiro[[1,2,3]triazolo[4,5-b]pyridine-7,3'-indoline]-2',5(3H)-dione]	7.96	< 5.30	> 10000	6.82	< 5.30	–	–
COCCCN1C(=O)[C@]2(CC(=O)Nc3c2nnn3[C@@H](C)c2ccc(Cl)cc2)c2cc(Cl)ccc21 [Compound 39, (R)-5'-Chloro-3-((S)-1-(4-chlorophenyl)ethyl)-1'-(3-methoxypropyl)-4,6-dihydrospiro[[1,2,3]triazolo[4,5-b]pyridine-7,3'-indoline]-2',5(3H)-dione]	7.12 to 8.05	< 5.30	> 10000	6.54 to 7.43	< 5.30	8.05	7.40
COCCCN1C(=O)C[C@]2(C(=O)Nc3ccc(Cl)cc32)c2nnn([C@@H](C)c3ccc(Cl)cc3)c21 [Compound 40, (R)-5'-Chloro-3-((S)-1-(4-chlorophenyl)ethyl)-4-(3-methoxypropyl)-4,6-dihydrospiro[[1,2,3]triazolo[4,5-b]pyridine-7,3-indoline]-2',5(3H)-dione]	6.04	< 5.00	> 10000	5.06	< 5.00	–	–
C[C@@H](c1ccc(Cl)cc1)n1nnc2c1NC(=O)C[C@]21C(=O)N(CCO)c2ccc(Cl)cc21 [Compound 42, (R)-5'-Chloro-3-((S)-1-(4-chlorophenyl)ethyl)-1'-(2-hydroxyethyl)-4,6-dihydrospiro[[1,2,3]triazolo[4,5-b]pyridine-7,3'-indoline]-2',5(3H)-dione]	7.12 to 8.05	< 5.30	> 10000	6.54 to 7.43	< 5.30	8.00	7.43
COC(=O)CN1C(=O)C[C@]2(C(=O)Nc3ccc(Cl)cc32)c2nnn([C@@H](C)c3ccc(Cl)cc3)c21 [Compound 44, Methyl 2-((R)-5'-chloro-3-((S)-1-(4-chlorophenyl)ethyl)-2',5-dioxo-5,6-dihydrospiro[[1,2,3]triazolo[4,5-b]pyridine-7,3'-indolin]-4(3H)-yl)acetate]	5.57	< 5.00	> 10000	< 5.00	< 5.00	–	–
C[C@@H](c1ccc(Cl)cc1)n1nnc2c1NC(=O)C[C@]21C(=O)N(CCF)c2ccc(Cl)cc21 [Compound 46, (R)-5'-Chloro-3-((S)-1-(4-chlorophenyl)ethyl)-1'-(2-fluoroethyl)-4,6-dihydrospiro[[1,2,3]triazolo[4,5-b]pyridine-7,3'-indoline]-2',5(3H)-dione]	7.12 to 8.05	< 5.30	> 10000	6.54 to 7.43	< 5.30	8.05	7.42
C[C@@H](c1ccc(Cl)cc1)n1nnc2c1NC(=O)C[C@]21C(=O)N(CCCBr)c2ccc(Cl)cc21 [Compound 47, (R)-1'-(3-Bromopropyl)-5'-chloro-3-((S)-1-(4-chlorophenyl)ethyl)-4,6-dihydrospiro[[1,2,3]triazolo[4,5-b]pyridine-7,3'-indoline]-2',5(3H)-dione]	7.12	5.62	> 10000	6.60	5.49	–	–
C[C@@H](c1ccc(Cl)cc1)n1nnc2c1NC(=O)C[C@]21C(=O)N(CCN2CCOCC2)c2ccc(Cl)cc21 [Compound 55, (R)-5'-chloro-3-((S)-1-(4-chlorophenyl)ethyl)-1'-(2-morpholinoethyl)-4,6-dihydrospiro[[1,2,3]triazolo[4,5-b]pyridine-7,3'-indoline]-2',5(3H)-dione]	7.77	< 5.30	> 10000	7.12	< 5.30	–	–
C[C@@H](c1ccc(Cl)cc1)n1nnc2c1NC(=O)C[C@]21C(=O)N(CCN2CCCCC2)c2ccc(Cl)cc21 [Compound 56, (R)-5'-Chloro-3-((S)-1-(4-chlorophenyl)ethyl)-1'-(2-(piperidin-1-yl)ethyl)-4,6-dihydrospiro[[1,2,3]triazolo[4,5-b]pyridine-7,3'-indoline]-2',5(3H)-dione]	8.30	< 5.30	> 10000	7.13	< 5.30	–	–
C[C@@H](c1ccc(Cl)cc1)n1nnc2c1NC(=O)C[C@]21C(=O)N(CCN(C)C)c2ccc(Cl)cc21 [Compound 57, (R)-5'-Chloro-3-((S)-1-(4-chlorophenyl)ethyl)-1'-(2-(dimethylamino)ethyl)-4,6-dihydrospiro[[1,2,3]triazolo[4,5-b]pyridine-7,3'-indoline]-2',5(3H)-dione]	8.70	< 5.30	> 10000	7.60	< 5.30	–	–
C[C@@H](c1ccc(Cl)cc1)n1nnc2c1NC(=O)C[C@]21C(=O)N(CCN2CCCC2)c2ccc(Cl)cc21 [Compound 58, (R)-5'-Chloro-3-((S)-1-(4-chlorophenyl)ethyl)-1'-(2-(pyrrolidin-1-yl)ethyl)-4,6-dihydrospiro[[1,2,3]triazolo[4,5-b]pyridine-7,3'-indoline]-2',5(3H)-dione]	8.22	< 5.30	> 10000	7.42	< 5.30	–	–
C[C@@H](c1ccc(Cl)cc1)n1nnc2c1NC(=O)C[C@]21C(=O)N(CCN2CCN(C)CC2)c2ccc(Cl)cc21 [Compound 59, (R)-5'-Chloro-3-((S)-1-(4-chlorophenyl)ethyl)-1'-(2-(4-methylpiperazin-1-yl)ethyl)-4,6-dihydrospiro[[1,2,3]triazolo[4,5-b]pyridine-7,3'-indoline]-2',5(3H)-dione]	7.52	< 5.30	> 10000	6.52	< 5.30	–	–
C[C@@H](c1ccc(Cl)cc1)n1nnc2c1NC(=O)C[C@]21C(=O)N(CCN(C)CCS(C)(=O)=O)c2ccc(Cl)cc21 [Compound 60, (R)-5'-Chloro-3-((S)-1-(4-chlorophenyl)ethyl)-1'-(2-(methyl(2-(methylsulfonyl)ethyl)amino)ethyl)-4,6-dihydrospiro[[1,2,3]triazolo[4,5-b]pyridine-7,3'-indoline]-2',5(3H)-dione]	7.74	< 5.30	> 10000	7.11	< 5.30	–	–
C[C@@H](c1ccc(Cl)cc1)n1nnc2c1NC(=O)C[C@]21C(=O)N(CCN2CCC2)c2ccc(Cl)cc21 [Compound 61, (R)-1'-(2-(Azetidin-1-yl)ethyl)-5'-chloro-3-((S)-1-(4-chlorophenyl)ethyl)-4,6-dihydrospiro[[1,2,3]triazolo[4,5-b]pyridine-7,3'-indoline]-2',5(3H)-dione]	8.15	< 5.30	> 10000	7.17	< 5.30	–	–
CNCCN1C(=O)[C@]2(CC(=O)Nc3c2nnn3[C@@H](C)c2ccc(Cl)cc2)c2cc(Cl)ccc21 [Compound 62, (R)-5'-chloro-3-((S)-1-(4-chlorophenyl)ethyl)-1'-(2-(methylamino)ethyl)-4,6-dihydrospiro[[1,2,3]triazolo[4,5-b]pyridine-7,3'-indoline]-2',5(3H)-dione]	7.66	< 5.30	> 10000	6.92	< 5.30	–	–
